pIC50: −log10 of the molar value.
Tests used:
Assay type in all cases: functional, cell-based
A549 [1] = assay: Cytotoxicity against human A549 cells after 72 hrs; settings: A549, 72 h
A549 [2] = assay: Cytotoxicity against human A549 cells after 2 hrs; settings: A549, 2 h
A549 [3] = assay: Cytotoxicity against human A549 cells after 9 hrs; settings: A549, 9 h
A549 [4] = assay: Cytotoxicity against human A549 cells; settings: TDE = time-dependent effect

Structure (SMILES) | pIC50 (A549 [1]) | pIC50 (A549 [2]) | pIC50 (A549 [3]) | Activity (A549 [4])
CC1(C)CC[C@]2(CO)[C@H](O)C[C@]3(C)C(=CC[C@@H]4[C@@]5(C)CC[C@H](O[C@@H]6OC[C@H](O)[C@H](O)[C@H]6O[C@@H]6O[C@H](CO)[C@@H](O)[C@H](O)[C@H]6O[C@@H]6OC[C@@H](O)[C@H](O)[C@H]6O)[C@@](C)(CO)[C@@H]5CC[C@]43C)[C@H]2C1 [HETERGENOSIDE B] | 4.72 | 4.58 | – | –
CC1(C)CC[C@]2(CO)[C@H](O)C[C@]3(C)C(=CC[C@@H]4[C@@]5(C)CC[C@H](O[C@@H]6OC[C@H](O)[C@H](O)[C@H]6O[C@@H]6O[C@H](CO)[C@@H](O)[C@H](O)[C@H]6O)[C@@](C)(CO)[C@@H]5CC[C@]43C)[C@H]2C1 [HETEROGENOSIDE A] | 4.61 | – | < 4.00 | tde

Source: ChEMBL document CHEMBL1154672, “Four new cytotoxic oligosaccharidic derivatives of 12-oleanene from Lysimachia heterogenea Klatt” (Bioorg Med Chem Lett, 2009)
